{
  "source": "ChEMBL document CHEMBL1201862",
  "about": "“PubChem BioAssay data set” (2004)",
  "key": {"[1]": {"target": "DNA dC->dU-editing enzyme APOBEC-3A (Homo sapiens, UniProt P31941)", "sequence (P31941 whole entry)": "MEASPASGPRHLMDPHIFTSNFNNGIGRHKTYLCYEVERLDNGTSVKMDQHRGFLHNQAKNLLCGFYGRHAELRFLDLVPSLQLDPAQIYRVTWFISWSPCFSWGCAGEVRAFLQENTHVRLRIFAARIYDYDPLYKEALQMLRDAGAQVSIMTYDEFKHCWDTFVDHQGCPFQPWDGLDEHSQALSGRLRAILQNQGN", "test": "Dose Response confirmation of small molecule APOBEC3A DNA Deaminase Inhibitors via a fluorescence-based single-stranded DNA deaminase assay. [Related pubchem assays (depositor defined):AID493011, AID493024]", "format": "functional"}, "[2]": {"target": "DNA dC->dU-editing enzyme APOBEC-3G (Homo sapiens, UniProt Q9HC16)", "sequence (Q9HC16 whole entry)": "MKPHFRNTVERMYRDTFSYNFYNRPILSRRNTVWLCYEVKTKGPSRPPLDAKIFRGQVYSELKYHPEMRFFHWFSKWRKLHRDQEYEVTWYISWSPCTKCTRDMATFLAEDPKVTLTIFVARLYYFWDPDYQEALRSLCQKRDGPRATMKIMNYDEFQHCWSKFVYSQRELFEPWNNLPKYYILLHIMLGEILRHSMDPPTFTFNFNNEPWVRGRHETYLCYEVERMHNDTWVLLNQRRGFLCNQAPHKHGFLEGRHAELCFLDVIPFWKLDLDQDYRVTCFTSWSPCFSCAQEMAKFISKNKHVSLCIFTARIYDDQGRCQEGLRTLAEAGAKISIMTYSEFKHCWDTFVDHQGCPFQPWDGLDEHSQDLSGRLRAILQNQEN", "format": "functional"}, "[3]": {"test": "A Cell Based Secondary Assay To Explore Cytotoxicity of Compounds that Sensitize Mycobacterium Tuberculosis to Beta-Lactam Antibiotics.", "format": "functional"}, "[4]": {"target": "T1, DNA repair protein RAD52 homolog (Homo sapiens, UniProt P43351)", "T1 sequence (P43351 whole entry)": "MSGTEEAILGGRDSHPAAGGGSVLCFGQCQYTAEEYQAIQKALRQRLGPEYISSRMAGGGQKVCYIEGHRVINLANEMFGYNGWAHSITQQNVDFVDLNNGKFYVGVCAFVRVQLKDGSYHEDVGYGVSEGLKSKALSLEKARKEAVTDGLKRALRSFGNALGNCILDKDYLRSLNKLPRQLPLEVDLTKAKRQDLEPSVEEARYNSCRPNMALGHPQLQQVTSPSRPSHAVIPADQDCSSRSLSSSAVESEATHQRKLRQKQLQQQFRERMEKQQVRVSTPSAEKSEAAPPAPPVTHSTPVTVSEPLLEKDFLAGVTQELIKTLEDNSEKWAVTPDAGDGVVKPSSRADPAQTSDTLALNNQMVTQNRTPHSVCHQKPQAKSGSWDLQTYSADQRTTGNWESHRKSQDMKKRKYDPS", "format": "functional, biochemical"}, "[5]": {"target": "T2, DNA repair and recombination protein RAD54-like (Homo sapiens, UniProt Q92698)", "T2 sequence (Q92698 whole entry)": "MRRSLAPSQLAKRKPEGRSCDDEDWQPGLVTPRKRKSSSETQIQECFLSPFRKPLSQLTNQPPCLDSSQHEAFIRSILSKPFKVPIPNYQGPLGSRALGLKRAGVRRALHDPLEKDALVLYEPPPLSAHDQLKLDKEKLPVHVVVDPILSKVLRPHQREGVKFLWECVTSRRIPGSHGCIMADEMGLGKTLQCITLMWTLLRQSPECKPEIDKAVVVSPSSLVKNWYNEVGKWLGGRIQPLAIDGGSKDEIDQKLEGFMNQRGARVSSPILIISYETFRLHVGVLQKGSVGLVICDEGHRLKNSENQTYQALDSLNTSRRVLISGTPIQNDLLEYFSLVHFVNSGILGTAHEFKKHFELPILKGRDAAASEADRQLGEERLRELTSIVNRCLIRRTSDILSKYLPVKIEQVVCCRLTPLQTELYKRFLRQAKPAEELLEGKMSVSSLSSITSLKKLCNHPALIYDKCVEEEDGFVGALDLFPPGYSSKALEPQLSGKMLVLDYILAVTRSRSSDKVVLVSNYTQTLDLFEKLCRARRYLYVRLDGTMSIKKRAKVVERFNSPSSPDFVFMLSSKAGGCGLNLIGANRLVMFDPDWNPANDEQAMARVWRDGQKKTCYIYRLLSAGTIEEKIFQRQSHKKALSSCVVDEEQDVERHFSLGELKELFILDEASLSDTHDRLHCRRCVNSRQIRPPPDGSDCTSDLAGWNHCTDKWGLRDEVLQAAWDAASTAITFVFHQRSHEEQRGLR", "test": "inhibitors of human RAD54 branch migration, confirmation, biochemical, fluorescence, cherry-picked samples, dose series (AID 651657)", "format": "functional"}, "[6]": {"target": "T3, Calpain-2 catalytic subunit (Sus scrofa, UniProt P43367)", "T3 sequence (P43367 whole entry)": "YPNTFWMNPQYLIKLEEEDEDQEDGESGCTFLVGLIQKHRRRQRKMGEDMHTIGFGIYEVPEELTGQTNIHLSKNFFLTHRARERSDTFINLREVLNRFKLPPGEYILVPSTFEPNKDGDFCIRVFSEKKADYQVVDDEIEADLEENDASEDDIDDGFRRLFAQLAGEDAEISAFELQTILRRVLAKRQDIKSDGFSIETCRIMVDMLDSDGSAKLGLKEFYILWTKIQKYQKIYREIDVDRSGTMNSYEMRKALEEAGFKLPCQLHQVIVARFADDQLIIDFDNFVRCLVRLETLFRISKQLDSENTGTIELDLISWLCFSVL", "test": "pig calpain II inhibitor potency, dose response, biochemical, fluorogenic peptide substrate (AID 1420)", "format": "functional"}, "[7]": {"target": "T4, Replicative DNA helicase DnaB (Mycobacterium tuberculosis, UniProt P9WMR3)", "T4 sequence (P9WMR3 whole entry)": "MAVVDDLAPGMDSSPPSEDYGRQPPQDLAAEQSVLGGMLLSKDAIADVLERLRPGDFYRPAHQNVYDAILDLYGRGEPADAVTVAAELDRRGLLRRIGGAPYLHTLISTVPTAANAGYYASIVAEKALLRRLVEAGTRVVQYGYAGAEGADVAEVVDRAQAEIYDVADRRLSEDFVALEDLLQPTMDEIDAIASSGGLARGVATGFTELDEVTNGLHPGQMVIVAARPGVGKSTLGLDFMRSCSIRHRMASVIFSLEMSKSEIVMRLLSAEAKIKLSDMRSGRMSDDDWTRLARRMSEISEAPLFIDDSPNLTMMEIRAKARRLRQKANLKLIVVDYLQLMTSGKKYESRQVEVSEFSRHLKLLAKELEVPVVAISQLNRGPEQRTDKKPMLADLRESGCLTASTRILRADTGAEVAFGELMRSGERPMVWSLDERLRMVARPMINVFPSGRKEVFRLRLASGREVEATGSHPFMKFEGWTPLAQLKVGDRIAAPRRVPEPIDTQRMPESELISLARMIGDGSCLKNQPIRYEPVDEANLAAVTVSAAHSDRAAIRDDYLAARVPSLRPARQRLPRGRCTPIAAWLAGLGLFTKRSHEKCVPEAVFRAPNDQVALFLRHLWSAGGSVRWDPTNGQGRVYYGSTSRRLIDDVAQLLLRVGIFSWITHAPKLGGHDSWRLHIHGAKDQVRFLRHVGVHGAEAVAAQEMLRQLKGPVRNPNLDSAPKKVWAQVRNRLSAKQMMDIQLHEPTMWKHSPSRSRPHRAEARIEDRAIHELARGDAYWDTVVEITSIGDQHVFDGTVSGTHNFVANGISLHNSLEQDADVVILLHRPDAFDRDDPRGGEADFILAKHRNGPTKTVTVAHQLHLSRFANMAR", "test": "DnaB intein splicing inhibitors, dose response, biochemical, cell-free fluorescence (AID 449749)", "format": "functional"}, "[8]": {"test": "growth suppression of PTEN-null colon cells, dose response, cell-based, HCT116 PTEN knockout (AID 1047);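 also: HCT116 colon tumor cells with PTEN knocked out; cells exposed to compound for 60 hours before readout; potency for loss of cell viability measured by luminescence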", "format": "functional"}, "[9]": {"test": "growth suppression of beta-catenin-knockout colon cells, dose response, cell-based, HCT116, human colon tumor (AID 1045);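 also: HCT116 colon tumor cells with beta catenin knocked out; cells exposed to compound for 60 hours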", "format": "functional"}, "Protein RecA": {"target": "T5, Protein RecA (Mycobacterium tuberculosis, UniProt P9WHJ3)", "T5 sequence (P9WHJ3 whole entry)": "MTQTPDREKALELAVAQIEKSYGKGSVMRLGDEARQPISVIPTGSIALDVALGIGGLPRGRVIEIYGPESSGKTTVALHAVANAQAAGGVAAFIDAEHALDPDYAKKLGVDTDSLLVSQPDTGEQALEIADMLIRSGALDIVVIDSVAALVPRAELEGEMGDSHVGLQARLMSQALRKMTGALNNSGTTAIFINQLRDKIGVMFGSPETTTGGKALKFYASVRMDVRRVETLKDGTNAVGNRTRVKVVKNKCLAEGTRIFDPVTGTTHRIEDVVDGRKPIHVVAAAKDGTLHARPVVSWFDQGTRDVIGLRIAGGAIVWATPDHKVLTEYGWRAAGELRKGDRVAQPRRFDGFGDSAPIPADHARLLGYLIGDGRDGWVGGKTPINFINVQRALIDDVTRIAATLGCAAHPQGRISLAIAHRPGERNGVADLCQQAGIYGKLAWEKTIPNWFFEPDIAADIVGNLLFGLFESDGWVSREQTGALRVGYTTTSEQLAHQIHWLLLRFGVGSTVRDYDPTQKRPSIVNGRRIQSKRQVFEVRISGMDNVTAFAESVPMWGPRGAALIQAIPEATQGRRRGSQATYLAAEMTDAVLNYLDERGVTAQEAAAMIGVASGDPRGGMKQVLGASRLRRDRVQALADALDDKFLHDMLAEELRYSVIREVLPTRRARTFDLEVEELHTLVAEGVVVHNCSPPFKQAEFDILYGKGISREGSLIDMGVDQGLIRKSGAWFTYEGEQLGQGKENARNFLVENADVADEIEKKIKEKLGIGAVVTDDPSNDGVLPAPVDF", "test": "Fluorescence Cell-Free Homogeneous Dose Retest to Identify Inhibitors of RecA-Intein Splicing Activity. [Related pubchem assays (depositor defined):AID2097, AID2223, AID489010, AID492950]", "format": "functional"}},
  "note": "The source made the active and inactive calls.",
  "data": [
    {"smiles": "CCc1noc(C)c1C(=O)Nc1cc(S(=O)(=O)N2CCOCC2)ccc1N1CCN(CC)CC1", "values": [
      {"measurement": "IC50", "setting": "[1]", "value": "3.46 µM (active)"},
      {"measurement": "IC50", "setting": "[2]", "value": "5.53 µM (active)"}
    ]},
    {"smiles": "COc1c(F)c(F)c(C(=O)Nc2c(C)cc(Br)cc2C)c(F)c1F", "values": [
      {"measurement": "CC50", "setting": "[3]", "value": "35.6 µM (active)"}
    ]},
    {"smiles": "COc1ccc(/C=C2\\N=C(SC)N(c3ccccc3OC)C2=O)cc1", "values": [
      {"measurement": "CC50", "setting": "[3]", "value": "37 µM (active)"}
    ]},
    {"smiles": "COc1cccc(-c2cc(NC=O)c3ncc(-c4cccc(C(=O)NCCN(C)C)c4)n3c2)c1", "values": [
      {"measurement": "AC50", "setting": "[4]", "value": "3.43 µM (active)"},
      {"measurement": "AC50", "setting": "[5]", "value": "22.3 µM (active)"}
    ]},
    {"smiles": "COc1ccc(NC(=O)COc2ccc(/C=C/c3cc[n+](C)cc3)cc2OC)cc1", "values": [
      {"measurement": "IC50", "setting": "[1]", "value": "3.69 µM (active)"},
      {"measurement": "IC50", "setting": "[2]", "value": "3.92 µM (active)"}
    ]},
    {"smiles": "COc1ccc(N2C(=O)N(Cc3ccc(C)cc3)c3ccccc3S2(=O)=O)cc1", "values": [
      {"measurement": "IC50", "setting": "[6]", "value": "18.5 µM (not active)"}
    ]},
    {"smiles": "O=S(=O)(Cc1ccccc1)c1cnc2ccccc2n1", "values": [
      {"measurement": "AC50", "setting": "[7]", "value": "> 380 µM (inactive)"},
      {"measurement": "EC50", "setting": "[8]", "value": "14.1 µM (active)"},
      {"measurement": "CC50", "setting": "[3]", "value": "34 µM (active)"},
      {"measurement": "EC50", "setting": "[9]", "value": "12.2 µM (active)"},
      {"measurement": "EC50", "setting": "Protein RecA", "value": "18.3 µM (active)"}
    ]}
  ]
}
